In data set [1] the test system is Raji cells. Nature of the data set: Viability of Raji cells in the EBV-EA activation assay. Conditions: concentration 1000 mol ratio to TPA (32 pmol/ml); value in parentheses. In kind it is cell-based. The source says:
(§1) We finally carried out in vitro functional analysis of the purified valerianol against tumor promoter activity, since there were no reports on its physiological functions. As such a screening study for anti-tumor promoters, valerianol and other several sesquiterpenes, β-eudesmol, elemol, α-selinene, and γ-amorphene, were examined for their inhibitory effects on induction of Epstein-Barr virus-early antigen (EBV-EA) activation in Raji cells by 12-O-tetradecanoylphorbol-13-acetate (TPA)[42].
(§2) This assay was carried out by the method described.

Data set [2] has as its system Epstein-Barr virus-early antigen (EBV-EA) activation in Raji cells by TPA. Briefly: Inhibitory effects on induction of EBV-EA activation by TPA in Raji cells. In kind it is cell-based.
From the text: as §1, §2

Data set [3] can be described thus: Viability of Raji cells in the EBV-EA activation assay. Conditions: human, Raji cells; concentration 1000 mol ratio to TPA (32 pmol/ml); value in parentheses; read-out: viability percentage of Raji cells. In kind it is cell-based.
From the text: as §1, §2

For data set [4], the system named is Staphylococcus aureus. More on the design: method as in PMID 26927047. Conditions: extracted from Chinese agarwood; cited from earlier work.
Data set [5] has as its system Ralstonia solanacearum. The conditions noted are these: extracted from Chinese agarwood; cited from earlier work.
The mark [6] stands for this setting: concentration 100 mol ratio to TPA (32 pmol/ml).
Setting [7] is: concentration 500 mol ratio to TPA (32 pmol/ml).
The mark [8] stands for this setting: concentration 1000 mol ratio to TPA (32 pmol/ml).
Where [9] appears, read: concentration 10 mol ratio to TPA (32 pmol/ml).

By viability is commonly meant a per cent measure of how many cells are alive, often set against a control.

Structures are written as SMILES.

For `C=C(C)[C@@H]1CC[C@@]2(C)CCC=C(C)[C@@H]2C1` [α-selinene], the “viability percentage of Raji cells” value in data set [1] turned out to be 60%. The “EBV-EA activation, percentage relative to the positive control value (100%)” value in data set [2] (setting [6]) came out at 74.4 ± 2.7%; in data set [2] (setting [7]), 54.2 ± 1.5%; in data set [2] (setting [8]) it was 7.3%.
On to `C=CC1(C)CCC(C(C)(C)O)CC1C(=C)C` (stereo not drawn) [elemol], for which the viability at 32 nmol/ml in data set [3] is 70%. Also, the “EBV-EA activation, percentage relative to the positive control value (100%)” value was found to be 100 ± 0.5% in data set [2] (setting [9]), 73.0 ± 2.4% in data set [2] (setting [6]), 52.6 ± 1.3% in data set [2] (setting [7]) and 5.8% in data set [2] (setting [8]).
Take `C[C@@H]1CCC=C2CC[C@@H](C(C)(C)O)C[C@]21C` (relative stereo) [valerianol]: the viability at 32 nmol/ml in data set [3] amounted to 60%. Besides, the “inhibitory activity on induction of EBV-EA activation by TPA (in words)” value in data set [2] was “strongest inhibitory activity among the examined sesquiterpenes”. Moreover, the “EBV-EA activation, percentage relative to the positive control value (100%)” value is given as 95.6 ± 0.6% in data set [2] (setting [9]), 70.0 ± 2.5% in data set [2] (setting [6]), 46.5 ± 1.5% in data set [2] (setting [7]) and 2.1% in data set [2] (setting [8]). Also, the “antibacterial activity against Staphylococcus aureus (in words)” value in data set [4] is on record as “exhibited antibacterial activities”. Further, the “antibacterial activity against Ralstonia solanacearum (in words)” value in data set [5] was “exhibited antibacterial activities”.
For `C=C1CCC[C@]2(C)CC[C@@H](C(C)(C)O)C[C@@H]12` [β-eudesmol], the viability at 32 nmol/ml in data set [3] turned out to be 60%. The “EBV-EA activation, percentage relative to the positive control value (100%)” value in data set [2] (setting [9]) is recorded as 97.0 ± 0.5%; in data set [2] (setting [6]), 71.1 ± 2.2%; in data set [2] (setting [7]), 50.4 ± 1.6%; in data set [2] (setting [8]), 3.6%.
On to `C=C1CC[C@@H](C(C)C)[C@H]2C=C(C)CC[C@@H]12` [γ-amorphene], for which the “viability percentage of Raji cells” value in data set [1] stood at 60%. Moreover, the “EBV-EA activation, percentage relative to the positive control value (100%)” value in data set [2] (setting [9]) worked out at 100 ± 0.4%; in data set [2] (setting [6]), 76.1 ± 2.5%; in data set [2] (setting [7]), 55.6 ± 1.7%; in data set [2] (setting [8]) it was 8.1%.
